Format in all cases: cell-based
For assay [1], the target named is T1, M1 muscarinic receptor (Homo sapiens, UniProt P11229).
T1 construct: expressed in transfected cells; host or cells: CHO (M1-CHO)
T1 sequence (P11229 1-460): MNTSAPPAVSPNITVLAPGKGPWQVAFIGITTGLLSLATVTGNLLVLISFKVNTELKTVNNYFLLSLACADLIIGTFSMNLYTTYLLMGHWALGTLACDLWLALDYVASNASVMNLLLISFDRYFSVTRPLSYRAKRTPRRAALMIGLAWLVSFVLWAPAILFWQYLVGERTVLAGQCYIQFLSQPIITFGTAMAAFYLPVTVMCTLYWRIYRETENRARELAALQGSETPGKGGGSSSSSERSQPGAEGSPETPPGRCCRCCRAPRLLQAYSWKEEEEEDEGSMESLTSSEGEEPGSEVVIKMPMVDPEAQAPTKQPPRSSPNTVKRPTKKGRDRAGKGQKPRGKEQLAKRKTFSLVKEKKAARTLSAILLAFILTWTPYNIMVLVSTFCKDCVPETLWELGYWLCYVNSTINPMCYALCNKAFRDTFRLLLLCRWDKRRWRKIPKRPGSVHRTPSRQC
As to the kind of experiment: Functional mobilization of intracellular calcium (FLIPR), M1-CHO cells. As to conditions: for Emax: 100% efficacy is the maximum response obtained with the Carbachol control; for M1 Activity: M1-CHO cells, calcium mobilization (FLIPR). Put shortly: (§1)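 FLIPR fluorescence (ex 488, em 540 nm) recorded 60 sec after compound addition to dye-loaded CHO cells. Agonist mode: compound alone. Antagonist mode: 15 min compound pre-incubation, then carbachol at EC80, or co-application. Efficacy expressed as % of maximal carbachol response.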
(Calcium flux is commonly read through the fluorescence of an indicator in the cells.)

Assay [2] deals with T2, M2 muscarinic receptor (Homo sapiens, UniProt P08172).
T2 construct: expressed in transfected cells; host or cells: CHO (M2-CHO)
T2 sequence (P08172 1-466): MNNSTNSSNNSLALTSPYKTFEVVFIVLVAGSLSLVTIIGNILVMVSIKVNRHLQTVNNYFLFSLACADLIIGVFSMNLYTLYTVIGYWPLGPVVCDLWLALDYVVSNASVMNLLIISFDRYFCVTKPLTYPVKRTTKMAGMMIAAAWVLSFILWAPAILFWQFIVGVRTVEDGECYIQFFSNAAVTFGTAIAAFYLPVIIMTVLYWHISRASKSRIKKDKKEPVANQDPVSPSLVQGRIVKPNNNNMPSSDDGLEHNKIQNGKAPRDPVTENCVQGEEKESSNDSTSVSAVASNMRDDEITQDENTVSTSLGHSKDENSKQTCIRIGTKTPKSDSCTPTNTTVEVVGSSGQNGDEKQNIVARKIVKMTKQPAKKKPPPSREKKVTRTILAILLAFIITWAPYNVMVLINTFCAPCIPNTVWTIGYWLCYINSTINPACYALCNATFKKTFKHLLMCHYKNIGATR
As to the kind of experiment: Functional mobilization of intracellular calcium (FLIPR), M2-CHO cells. Particulars: for Emax: 100% efficacy is the maximum response obtained with the Carbachol control; for M2 Activity: M2-CHO cells, calcium mobilization (FLIPR). Put shortly: as §1

In assay [3] the target is T3, M3 muscarinic receptor (Homo sapiens, UniProt P20309).
T3 construct: expressed in transfected cells; host or cells: CHO (M3-CHO)
T3 sequence (P20309 whole entry): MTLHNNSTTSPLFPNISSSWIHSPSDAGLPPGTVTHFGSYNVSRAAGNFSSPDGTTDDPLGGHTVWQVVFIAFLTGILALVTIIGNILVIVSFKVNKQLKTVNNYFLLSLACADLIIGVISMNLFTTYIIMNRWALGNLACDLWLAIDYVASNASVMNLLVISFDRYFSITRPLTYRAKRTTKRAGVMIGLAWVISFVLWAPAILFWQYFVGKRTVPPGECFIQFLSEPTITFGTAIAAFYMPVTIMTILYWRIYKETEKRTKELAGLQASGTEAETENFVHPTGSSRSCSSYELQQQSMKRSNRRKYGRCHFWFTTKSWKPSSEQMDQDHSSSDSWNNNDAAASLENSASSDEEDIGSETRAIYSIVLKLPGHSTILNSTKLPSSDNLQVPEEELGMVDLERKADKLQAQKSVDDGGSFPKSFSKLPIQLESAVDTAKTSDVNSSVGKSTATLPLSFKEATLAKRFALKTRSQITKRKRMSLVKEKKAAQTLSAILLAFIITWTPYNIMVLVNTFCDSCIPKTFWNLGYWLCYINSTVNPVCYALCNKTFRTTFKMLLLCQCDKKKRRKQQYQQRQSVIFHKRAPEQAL
As to the kind of experiment: Functional mobilization of intracellular calcium (FLIPR), M3-CHO cells. Particulars: for Emax: 100% efficacy is the maximum response obtained with the Carbachol control; for M3 Activity: M3-CHO cells, calcium mobilization (FLIPR). Put shortly:
as §1

Assay [4] addresses T4, M4 muscarinic receptor (Homo sapiens, UniProt P08173).
T4 construct: expressed in transfected cells; host or cells: CHO (M4-CHO)
T4 sequence (P08173 1-479): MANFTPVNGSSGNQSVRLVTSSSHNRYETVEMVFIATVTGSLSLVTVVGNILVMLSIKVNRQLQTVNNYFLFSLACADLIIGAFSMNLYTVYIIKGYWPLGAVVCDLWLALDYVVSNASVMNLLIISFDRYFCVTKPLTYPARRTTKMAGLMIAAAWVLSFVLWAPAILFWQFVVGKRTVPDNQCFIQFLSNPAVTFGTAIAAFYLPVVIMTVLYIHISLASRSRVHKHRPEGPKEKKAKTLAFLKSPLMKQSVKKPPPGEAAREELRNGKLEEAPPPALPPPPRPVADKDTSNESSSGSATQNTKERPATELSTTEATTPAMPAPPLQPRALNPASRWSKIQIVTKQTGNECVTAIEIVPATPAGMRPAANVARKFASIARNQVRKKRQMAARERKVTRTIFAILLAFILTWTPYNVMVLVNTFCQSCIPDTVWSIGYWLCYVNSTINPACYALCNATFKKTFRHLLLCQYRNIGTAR
As to the kind of experiment: Functional mobilization of intracellular calcium (FLIPR), M4-CHO cells. Particulars: for Emax: 100% efficacy is the maximum response obtained with the Carbachol control; for M4 Activity: M4-CHO cells, calcium mobilization (FLIPR). Put shortly:
as §1

Molecules are shown by their SMILES.

As for `COc1ccc(C#CC2(O)CCCCC2)cc1C1CCN([C@@H]2C[C@H]3CC[C@H]2C3)CC1` [Compound 377], in assay [1], the Emax was below 25% and the “M1 Activity” value is “+ (activity was measured to be greater than 5.0 μM)”. For the same compound, in assay [2], the Emax is below 25% and the “M2 Activity” value is on record as “+ (activity was measured to be greater than 5.0 μM)”. For the same compound, in assay [3], the Emax is below 25% and the “M3 Activity” value was “+ (activity was measured to be greater than 5.0 μM)”. In assay [4], the Emax fell in the range of 25 to 100% and the “M4 Activity” value is on record as “+++ (activity was measured to be less than 1.0 μM)”.

On to `Fc1ccccc1C1CCN(C2CCOCC2)CC1` [Compound 378], for which, in assay [1], the Emax is 25 to 100% and the “M1 Activity” value is recorded as “+ (activity was measured to be greater than 5.0 μM)”. Moreover, in assay [2], the Emax was below 25% and the “M2 Activity” value is reported as “+ (activity was measured to be greater than 5.0 μM)”. Moreover, in assay [3], the Emax is below 25% and the “M3 Activity” value is recorded as “+ (activity was measured to be greater than 5.0 μM)”. Besides, in assay [4], the Emax lay in the range of 25 to 100% and the “M4 Activity” value was “+++ (activity was measured to be less than 1.0 μM)”.

Consider `Cc1ccc(F)cc1C1CCN([C@@H]2C[C@H]3CC[C@H]2C3)CC1` [Compound 381], for which, in assay [1], the Emax is 25 to 100% and the “M1 Activity” value was “++ (activity was measured to be from 1.0 μM to 5.0 μM)”. For the same compound, in assay [2], the Emax was 25 to 100% and the “M2 Activity” value is recorded as “++ (activity was measured to be from 1.0 μM to 5.0 μM)”. In assay [3], the Emax is below 25% and the “M3 Activity” value is recorded as “+ (activity was measured to be greater than 5.0 μM)”. Also, in assay [4], the maximum response (Emax) fell in the range of 25 to 100% and the “M4 Activity” value is “+++ (activity was measured to be less than 1.0 μM)”.

Turning to `COc1ccc(-c2ccc3c(c2)OCO3)cc1C1CCN(C2CCCCC2)CC1` [Compound 382], in assay [1], the Emax is below 25% and the “M1 Activity” value is given as “+ (activity was measured to be greater than 5.0 μM)”. In assay [2], the Emax was below 25% and the “M2 Activity” value is listed as “+ (activity was measured to be greater than 5.0 μM)”. Also, in assay [3], the Emax was below 25% and the “M3 Activity” value is “+ (activity was measured to be greater than 5.0 μM)”. In assay [4], the Emax lay within 25 to 100% and the “M4 Activity” value is on record as “+ (activity was measured to be greater than 5.0 μM)”.

As for `COc1ccc(-c2ccc(C#N)cc2)cc1C1CCN([C@@H]2C[C@H]3CC[C@H]2C3)CC1` [Compound 383], in assay [1], the Emax fell in the range of 25 to 100% and the “M1 Activity” value is recorded as “+ (activity was measured to be greater than 5.0 μM)”. In assay [2], the Emax was below 25% and the “M2 Activity” value was “+ (activity was measured to be greater than 5.0 μM)”. In assay [3], the maximal effect (Emax) was below 25% and the “M3 Activity” value was “+ (activity was measured to be greater than 5.0 μM)”. In assay [4], the maximal effect (Emax) lay within 25 to 100% and the “M4 Activity” value is given as “++ (activity was measured to be from 1.0 μM to 5.0 μM)”.

`CCC(C)Oc1ccccc1C1CCN([C@H]2C[C@H]3CC[C@H]2C3)CC1` (stereo partly drawn) [Compound 384]: in assay [1], the Emax was 25 to 100% and the “M1 Activity” value is “+ (activity was measured to be greater than 5.0 μM)”. Also, in assay [2], the Emax was below 25% and the “M2 Activity” value was “+ (activity was measured to be greater than 5.0 μM)”. In assay [3], the Emax was below 25% and the “M3 Activity” value is recorded as “+ (activity was measured to be greater than 5.0 μM)”. Further, in assay [4], the Emax was 25 to 100% and the “M4 Activity” value is “++ (activity was measured to be from 1.0 μM to 5.0 μM)”.

Consider `Cc1ccc(-c2ccccc2C2CCN([C@H]3C[C@H]4CC[C@H]3C4)CC2)c(C)c1` [Compound 386], for which, in assay [1], the Emax is below 25% and the “M1 Activity” value was “+ (activity was measured to be greater than 5.0 μM)”. In assay [2], the maximal response (Emax) was below 25% and the “M2 Activity” value is given as “+ (activity was measured to be greater than 5.0 μM)”. Also, in assay [3], the Emax was below 25% and the “M3 Activity” value was “+ (activity was measured to be greater than 5.0 μM)”. For the same compound, in assay [4], the Emax was in the range of 25 to 100% and the “M4 Activity” value is given as “+ (activity was measured to be greater than 5.0 μM)”.

With `CCOC(=O)N1C2CCC1CC(N1CCC(c3cc(-c4ccc5c(c4)OCO5)ccc3OC)CC1)C2` (stereo not drawn) [Compound 387], in assay [1], the Emax was in the range of 25 to 100% and the “M1 Activity” value is recorded as “+ (activity was measured to be greater than 5.0 μM)”. Further, in assay [2], the maximal effect (Emax) was below 25% and the “M2 Activity” value was “+ (activity was measured to be greater than 5.0 μM)”. Besides, in assay [3], the Emax is below 25% and the “M3 Activity” value is listed as “+ (activity was measured to be greater than 5.0 μM)”. In addition, in assay [4], the Emax lay in the range of 25 to 100% and the “M4 Activity” value was “++ (activity was measured to be from 1.0 μM to 5.0 μM)”.

Consider `CNC(=O)c1ccc(-c2ccc(OC)c(C3CCN([C@H]4C[C@H]5CC[C@H]4C5)CC3)c2)cc1` [Compound 388], for which, in assay [1], the Emax was below 25% and the “M1 Activity” value is “+ (activity was measured to be greater than 5.0 μM)”. Also, in assay [2], the Emax was below 25% and the “M2 Activity” value was “+ (activity was measured to be greater than 5.0 μM)”. Also, in assay [3], the Emax was below 25% and the “M3 Activity” value was “+ (activity was measured to be greater than 5.0 μM)”. In assay [4], the Emax is 25 to 100% and the “M4 Activity” value was “+++ (activity was measured to be less than 1.0 μM)”.

As to `COc1ccc(-c2ccc(C(=O)Nc3nccs3)cc2)cc1C1CCN(C2CCOCC2)CC1` [Compound 389], in assay [1], the Emax was below 25% and the “M1 Activity” value is “+ (activity was measured to be greater than 5.0 μM)”. Also, in assay [2], the Emax was below 25% and the “M2 Activity” value was “+ (activity was measured to be greater than 5.0 μM)”. Also, in assay [3], the Emax was below 25% and the “M3 Activity” value is “+ (activity was measured to be greater than 5.0 μM)”. In assay [4], the Emax is below 25% and the “M4 Activity” value is “+ (activity was measured to be greater than 5.0 μM)”.

In the case of `CCOC(=O)N1C2CCC1CC(N1CCC(OC)(c3cc(Cl)ccc3OC)CC1)C2` (stereo not drawn) [Compound 390], in assay [1], the Emax was 25 to 100% and the “M1 Activity” value is recorded as “+++ (activity was measured to be less than 1.0 μM)”. In assay [2], the maximum response (Emax) was below 25% and the “M2 Activity” value is “+ (activity was measured to be greater than 5.0 μM)”. Also, in assay [3], the maximum response (Emax) is below 25% and the “M3 Activity” value is given as “+ (activity was measured to be greater than 5.0 μM)”. In assay [4], the Emax lay within 25 to 100% and the “M4 Activity” value is recorded as “+++ (activity was measured to be less than 1.0 μM)”.

Take `O=C(NCc1cccc(C2CCN(C3C[C@H]4CC[C@H]3C4)CC2)c1)C1CC1` (stereo partly drawn) [Compound 391]: in assay [1], the Emax was below 25% and the “M1 Activity” value is on record as “+ (activity was measured to be greater than 5.0 μM)”. For the same compound, in assay [2], the Emax is below 25% and the “M2 Activity” value was “+ (activity was measured to be greater than 5.0 μM)”. In assay [3], the Emax is below 25% and the “M3 Activity” value is recorded as “+ (activity was measured to be greater than 5.0 μM)”. In assay [4], the Emax is below 25% and the “M4 Activity” value is “+ (activity was measured to be greater than 5.0 μM)”.

For orientation: Emax means the maximal effect, on the per cent scale that the assay sets.
